The values that follow come from patent US8575375B2, “Androstane and pregnane steroids with potent allosteric GABA receptor chloride ionophore modulating properties” (Research Triangle Institute, priority 2007, dated 2013).

Series [1] concerns electrically (6 Hz) induced seizures. In words: 6-Hz seizure test. It counts as in vivo. The conditions noted are these: FIG. 3; mice. The protocol:
(§1) Male NIH Swiss mice (25-30 g) were housed two per cage. Animals were kept in a vivarium (temperature 22-26° C.; humidity 40-50%) with an artificial 12-h light/dark cycle and free access to food and water. Animals were allowed to acclimate to the vivarium for at least 5 days. The experiments were performed during the light phase of the light/dark cycle (between 9:30 AM and 3:30 PM), after at least a 30-min period of acclimation to the experimental room. Animals were maintained in facilities fully accredited by the Association for Assessment and Accreditation of Laboratory Animal Care, and experiments were performed under protocols approved by the Animal Care and Use Committee of the National Institute of Neurological Disorders and Stroke in strict compliance with the Guide for the Care and Use of Laboratory Animals of the National Research Council (National Academy Press, Washington, D.C.
Solutions of the steroids were made fresh daily in 40% hydroxypropyl-β-cyclodextrin in sterile 0.9% saline. Further dilutions were made using sterile saline. The steroids were injected intraperitoneally. The convulsant agent pentylenetetrazol (PTZ; Sigma-Aldrich) was dissolved in saline immediately before use. All drug solutions were administered in a volume equaling 0.01 mL/g of the animal's body weight. […]

Series [2] concerns elevated zero maze behaviour. The experiment in a line: Elevated zero maze test of anxiolytic activity. Conditions: therapeutic doses, mice. It counts as in vivo. The protocol:
as §1, with “D.C. […]” for “D.C.”
Anxiolytic activity was assessed with the elevated zero-maze as described (Kaminski et al., 2006). […] Five-min test sessions were video-recorded with a tripod-mounted camcorder. Percent time in open areas and number of entries into open areas were scored from the taped records using Observer 3.0 software (Noldus, Wageningen, The Netherlands). […] Dose-response data were analyzed by one-way analysis of variance. […]

Series [3] has as its target GABAA receptor. The experiment in a line: [35S]TBPS binding assay in rat brain cerebral cortex homogenates. Conditions: rat cortical membranes, 6.25 μM GABA, 2 nM [35S]TBPS; mean±SD. How it is done:
(§2) Tissue preparation. Rat brain cerebral cortex homogenates and the binding assays were conducted essentially as described (Carter et al., 1997). Briefly, adult male Sprague-Dawley rats (Charles River Laboratories, Raleigh, N.C.) were killed by excess CO2 asphyxiation, decapitated, and their brain rapidly removed and frozen on dry ice before being stored −76° C. The frozen cortices were placed in 10 volumes of an ice-cold 0.32 M sucrose solution and homogenized with a Teflon-glass homogenizer. The homogenate was centrifuged at 1500×g (10 min at 4° C.). The supernatant was retained and centrifuged at 10,000×g (20 min at 4° C.), yielding the P2 pellet. The P2 pellet was resuspended in an equal volume of a 50 mM Na+/K+ phosphate buffer containing 200 mM NaCl (pH 7.4) and centrifuged at 10,000×g (10 min at 4° C.). The pellet was washed twice more, resuspended in 1/10 volume of buffer and stored at −76° C. until the time of assay.
[^35S]TBPS binding assays. These assays were carried out in 1.4 mL polypropylene tubes (Matrix Technologies, Hudson, N.H.). In a final volume of 0.5 mL, each tube contained 100 μL cortical membrane suspension (40 μg of protein, added last) 2 nM [^35S]TBPS (64-165 Ci/mmol), 6.25 μM GABA and one of six different concentrations of test compound added as 5 μL in 100% DMSO (1% final DMSO concentration). The test compounds were added to the assay tubes using a BiomekFX automated liquid handler with 96-well head (Beckman-Coulter, Fullerton, Calif.). Nonspecific binding was determined in the presence of 200 μM picrotoxin. The assays were incubated for 2 h at RT before being terminated by vacuum filtration through 96-well GF/B glass filter plates using a 96-well harvester (Brandel Scientific, Gaithersburg, Md.). Prior to harvesting, the filter plates were pre-soaked for 20 min in buffer containing 0.15% BSA and 0.1% PEI. The radioactivity remaining on the filter was determined in a TopCount 12-detector scintillation counter (Packard Instruments, Meriden, Conn.) using 20 μl of MicroScint20 (Packard Instruments) per well and standard liquid scintillation counting techniques.

Series [4] concerns GABAA receptor. In words: [3H]Flunitrazepam binding assay (enhancement) in rat brain cerebral cortex homogenates. The conditions noted are these: for [3H]Flunitrazepam Emax: percentage of Emax determined for allopregnanolone; for EC50: rat cortical membranes, 1.0 μM GABA, 1.0 nM [3H]flunitrazepam, mean±SD. How it is done:
as §2
[^3H]Flunitrazepam binding assay. This assay was conducted as described for the [^35S]TBPS assay except that the assays contained 20 μg tissue homogenate, 1.0 μM GABA and 1.0 nM [^3H]flunitrazepam (74.1-85 Ci/mmol). Clonazepam (1.0 μM) was used to determine nonspecific binding.

The test system of series [5] is pentylenetetrazole (PTZ) induced seizures. The experiment in a line: PTZ seizure test. The conditions noted are these: FIG. 3; mice. It counts as in vivo. How it is done: as §1
Solutions of the steroids were made fresh daily in 40% hydroxypropyl-β-cyclodextrin in sterile 0.9% saline. Further dilutions were made using sterile saline. The steroids were injected intraperitoneally. The convulsant agent pentylenetetrazol (PTZ; Sigma-Aldrich) was dissolved in saline immediately before use. […]
The PTZ seizure test was carried out as described (Kokate et al., 1994). […] Mice failing to show clonic seizures lasting longer than 5 s were scored as protected. […]

What is called melting point is the temperature of the solid-liquid transition. For `CN(C)c1ccc([C@H]2C[C@]3(C)[C@@H](O)CC[C@H]3[C@@H]3CC[C@H]4C[C@](C)(O)CC[C@@H]4[C@H]32)cc1.Cl`, the melting point was 230 to 232 °C (dec.).
In general, IC50 refers to the midpoint of a concentration-inhibition curve. A higher IC50 goes with weaker potency. The EC50 is the midpoint of the concentration-response curve. Regarding `C[C@]12CC[C@@H](O)C[C@@H]1CC[C@@H]1[C@@H]2CC[C@]2(C)[C@@H]([N+](=O)[O-])CC[C@@H]12` [Compound A2-A, 17β-Nitro-5α-androstan-3α-ol], in series [1], the “reduction of electrically (6 Hz) induced seizures” value is listed as “reduce”. For the same molecule, the “percentage of time spent in open arms of the maze” value in series [2] (FIG. 1A) is recorded as “significantly enhanced”. Moreover, the “number of entries (open arms)” value in series [2] (FIG. 1B) was “significantly enhanced”. In addition, the IC50 on GABAA receptor [3] stood at 13 ± 0.13 nM. In the series with GABAA receptor [4], the “[3H]Flunitrazepam Emax” value is reported as 103% and the EC50 stood at 24 ± 2.5 nM. Also, in series [5], the “reduction of chemically (PTZ) induced seizures” value is “reduce”.
`C[C@@]1(O)CC[C@@]2(C)[C@@H](CC[C@@H]3[C@@H]2CC[C@]2(C)[C@@H]([N+](=O)[O-])CC[C@@H]32)C1` [Compound A2-B, 3α-Hydroxy-3β-methyl-17β-nitro-5α-androstane] came in with a melting point of 211 to 213 °C. This molecule gave an IC50 on GABAA receptor [3] of 17.9 ± 6.19 nM. Also, in the series on GABAA receptor [4], the “[3H]Flunitrazepam Emax” value came out at 99.1% and the EC50 stood at 33.5 ± 4.9 nM.
The molecule `CS[C@H]1CCC2C3CC[C@H]4C[C@H](O)CC[C@]4(C)C3CC[C@@]21C` (stereo partly drawn) [Compound B-5, 3α-Hydroxy-17β-thiomethyl-5α-androstane] displayed a melting point of 151 to 153 °C. Further, at GABAA receptor [3], the IC50 came to 32 ± 5.19 nM. Moreover, in the series with GABAA receptor [4], the “[3H]Flunitrazepam Emax” value turned out to be 131.7% and the EC50 was found to be 75.9 ± 12.4 nM.
`CN(C)c1ccc([C@H]2C[C@@]3(C)C(CC[C@@H]3[N+](=O)[O-])C3CC[C@H]4C[C@](C)(O)CCC4C32)cc1` (stereo partly drawn) [Compound C-8, 11β-[4-(N,N-Dimethylamino)phenyl]-3α-hydroxy-3β-methyl-5α-17β-nitro-estrane] had a concentration for half-maximal inhibition (IC50) on GABAA receptor [3] of 9.79 ± 1.93 nM. In the series with GABAA receptor [4], the “[3H]Flunitrazepam Emax” value is on record as 135% and the EC50 was 39.5 ± 20.6 nM.
